Source: ChEMBL document CHEMBL1125844, “Novel non-nucleoside inhibitors of HIV-1 reverse transcriptase. 1. Tricyclic pyridobenzo- and dipyridodiazepinones” (J Med Chem, 1991)

What was measured:
[1] = target: Human immunodeficiency virus type 1 reverse transcriptase (Human immunodeficiency virus 1) (UniProt Q72547); assay: In vitro inhibitory activity against human immunodeficiency virus type 1 (HIV-1) reverse transcriptase (RT) at a concentration of 10 ug/mL.
[2] = target: Human immunodeficiency virus type 1 reverse transcriptase (Human immunodeficiency virus 1, UniProt Q72547); assay: In vitro inhibitory activity against human immunodeficiency virus type 1 (HIV-1) reverse transcriptase (RT)

Compound	inhibition [1] [%]	IC50 [2] [µM]
CSCN1c2ccccc2N(C)C(=O)c2cccnc21	84	6.6
CCCN1c2ncccc2C(=O)N(C)c2cccnc21	100	0.45
CN1C(=O)c2cccnc2N(CCF)c2ccccc21	97	1
CN1C(=O)c2ccccc2N(C)c2ncccc21	74	> 1
CCN1c2ccccc2N(C)C(=O)c2ccc(F)nc21	84	2.9
CCN1c2ncccc2C(=O)N(C)c2cc(C)cnc21	100	0.76
CCN1c2cc(C(=O)c3ccccc3)ccc2N(C)C(=O)c2cccnc21	73	> 1
C=CCN1C(=O)c2cccnc2N(C(=O)CC)c2ccccc21	72	> 1
CCN1c2ccc(C)cc2C(=O)N(C)c2cccnc21	99	0.58
CC[C@H](C)N1c2ncccc2NC(=O)c2cccnc21	88	> 1
Cc1cccc2c1NC(=O)c1cccnc1N2	77	> 1
CN1C(=O)c2cccnc2N(S(C)(=O)=O)c2ncccc21	77	> 1
CCN1c2ccc(O)cc2N(C)C(=O)c2cccnc21	47	> 1
Cc1cc2c(cc1C)N(CCN(C)C)c1ncccc1C(=O)N2C	0	> 1
CN(C)CCN1C(=O)c2cccnc2N(C2CC2)c2ncccc21	34	> 1
COCCN1C(=O)c2cccnc2Nc2ccccc21	36	> 1
CCCN1c2ccccc2N(C)C(=O)c2cccnc21	99	0.23
CCN1c2ccc(CNC(=O)C(C)(C)C)cc2N(C)C(=O)c2cccnc21	15	> 1
CCN1c2cccc(C)c2N(Cc2ccccc2)C(=O)c2cccnc21	40	> 1
CCN1c2ccccc2C(=O)N(C)c2ccccc21	80	> 1
CCN1c2ncccc2C(=O)N(C)c2cc([N+](=O)[O-])cnc21	64	> 1
CCN1c2ccc(C)c(C)c2N(C)C(=O)c2cccnc21	99	0.036
CCN1c2ccccc2NC(=O)c2cccnc21	99	0.38
CCN1c2ccc(Cl)cc2N(C)C(=O)c2cccnc21	99	0.17
CCN1C(=O)c2ccccc2N(CC)c2ncccc21	96	0.69

Compound	inhibition [1] [%]	IC50 [2] [µM]
O=C1Nc2cccnc2N(c2ccccc2)c2ncccc21	71	> 1
CCN1c2cccc(C)c2N(C)C(=O)c2cccnc21	100	0.24
CCN1c2cc(C(F)(F)F)ccc2N(C)C(=O)c2cccnc21	97	0.23
CCN1c2ccccc2N(CF)C(=O)c2cccnc21	85	> 1
Cc1ccnc2c1NC(=O)c1c(O)ccnc1N2C1CC1	96	> 1
CCN1c2ccccc2N(C)C(=O)c2cc(C(F)(F)C(F)(F)F)cnc21	5	> 1
C=CCN1c2ncccc2C(=O)N(C)c2cccnc21	99	0.85
CN1C(=O)c2cccnc2N(Cc2ccccc2)c2ccccc21	93	9
CN1C(=O)c2cccnc2N(CC(=O)OC(C)(C)C)c2ccccc21	87	> 1
CC(C)(C)OC(=O)CN1C(=O)c2cccnc2Nc2ccccc21	39	> 1
CCN1c2cc(C(F)(F)F)cc(Br)c2N(C)C(=O)c2cccnc21	71	> 1
CCN1c2cc(N=[N+]=[N-])ccc2N(C)C(=O)c2cccnc21	100	0.14
CCN1C(=O)c2cccc(C)c2N(CC)c2ncccc21	99	0.65
CCN1c2ncccc2C(=O)Nc2c(C)ccnc21	100	0.035
CN1c2ccccc2NC(=O)c2cccnc21	75	> 1
CN1C(=O)c2ccccc2N(C)c2ccccc21	52	> 1
CN1C(=O)c2cccnc2N(CCF)c2ncccc21	96	2.9
CN1C(=O)c2cccnc2N(C(C)(C)C)c2ncccc21	87	11
CN1C(=O)c2cccnc2N(CC(=O)O)c2ccccc21	60	> 1
CCCCN1c2ccccc2N(C)C(=O)c2cccnc21	81	1
CSCN1c2ncccc2C(=O)N(C)c2cccnc21	99	0.85
CCN1c2nc(C)ccc2C(=O)N(C)c2cccnc21	65	> 1
CCN1c2ncccc2C(=O)Nc2c(Cl)ccnc21	100	0.095
CCN1c2ncc(Cl)cc2C(=O)N(C)c2cccnc21	87	3.5
CCN1C(=O)c2cccnc2N(CC)c2cccc(C)c21	90	8

Compound	inhibition [1] [%]	IC50 [2] [µM]
Cc1ccnc2c1NC(=O)c1cccnc1N2C1CC1	100	–
CC[C@@H](C)N1c2ncccc2NC(=O)c2cccnc21	85	> 1
CCN1c2ncccc2C(=O)N(C)c2cc(N)cnc21	92	> 1
CCN1c2ncccc2C(=O)N(C)c2cc(C)c(C)nc21	100	0.24
CCN1c2ccc(C(=O)OC)cc2N(C)C(=O)c2cccnc21	94	1.1
CCN1c2cccc(C)c2NC(=O)c2cccnc21	100	0.038
CCc1ccnc2c1NC(=O)c1cccnc1N2CC	100	0.11
CCN1c2ncccc2C(=O)Nc2c(O)ccnc21	94	> 1
CC(=O)N1c2ccccc2N(C)C(=O)c2cccnc21	72	> 1
CCN1c2ncccc2C(=O)N(C)c2cccnc21	100	0.125
CCN1c2nc(C)c(C)cc2NC(=O)c2cccnc21	100	0.41
CCN1c2ccc(OC)cc2N(C)C(=O)c2cccnc21	95	2.1
CCN1c2ccc(CO)cc2N(C)C(=O)c2cccnc21	78	> 1
CCN1c2ncccc2NC(=O)c2cc(C)cnc21	89	> 1
CCN1c2ncccc2C(=O)Nc2c(OC)ccnc21	96	> 1
Cc1ccnc2c1N(C)C(=O)c1cccnc1N2C1CC1	96	> 1
O=C1Nc2cccnc2Nc2ccccc21	23	> 1
CCN1c2ncccc2NC(=O)c2cccnc21	99	0.44
O=C1c2cccnc2Nc2ccccc2N1CCO	46	> 1
O=C1Nc2cccnc2N(C2CCC2)c2ncccc21	99	0.43
O=C1Nc2ccccc2Nc2ncccc21	22	> 1
CCN1c2ncccc2C(=O)N(C)c2ccc(C)nc21	100	0.17
CCN(CC)C(=O)c1ccc2c(c1)N(C)C(=O)c1cccnc1N2CC	11	> 1
Cc1cc(C)c2c(n1)Nc1ccccc1C(=O)N2	51	> 1
C=CCN1C(=O)c2cccnc2Nc2ccc(Cl)cc21	79	> 1

Compound	inhibition [1] [%]	IC50 [2] [µM]
CCN1c2ncccc2C(=O)N(C(C)=O)c2cccnc21	99	0.36
CCN1c2cc(Cl)ccc2N(C)C(=O)c2cccnc21	100	0.17
CCN1c2ccc([N+](=O)[O-])cc2N(C)C(=O)c2cccnc21	56	> 1
O=C1Nc2cccnc2N(C2CC2)c2ncccc21	99	0.45
CN(C)C(=O)CN1C(=O)c2cccnc2Nc2ccccc21	24	> 1
CN1C(=O)c2cccnc2Nc2ccccc21	43	> 1
CCN1C(=O)c2cccnc2Nc2ccccc21	87	> 1
CCN1C(=O)c2cccnc2N(C)c2ccccc21	84	> 1
CCN1c2ccc(C(N)=O)cc2N(C)C(=O)c2cccnc21	66	27
CCN1c2cc(C(F)(F)F)cc(Cl)c2N(C)C(=O)c2cccnc21	96	0.29
CCN1c2cc(N)ccc2N(C)C(=O)c2cccnc21	89	4.5
O=C1Nc2cccnc2N(C2CCCC2)c2ncccc21	94	> 1
CCN1c2cc([N+](=O)[O-])ccc2N(C)C(=O)c2cccnc21	99	0.4
CCN1c2cc(Cl)c(Cl)cc2N(C)C(=O)c2cccnc21	100	0.062
CN1C(=O)c2cccnc2N(C)c2ccccc21	85	> 1
Cc1ccc2c(c1)N(C)C(=O)c1c(C)cc(C)nc1N2C	49	> 1
CN1C(=O)c2cccnc2N(CCO)c2ccccc21	58	> 1
CC(C)N1c2ccccc2N(C)C(=O)c2cccnc21	98	0.2
C=CCN1C(=O)c2cccnc2N(C(C)=O)c2ccccc21	83	> 1
CCN1c2ncccc2NC(=O)c2c(C)ccnc21	80	> 1
C#CN1c2ccccc2N(C)C(=O)c2cccnc21	97	0.65
CCN1C(=O)c2cccnc2N(CC)c2ccccc21	99	0.38
N#Cc1ccnc2c1NC(=O)c1cccnc1N2C1CC1	96	1.25
